# Data published in PMC5218480 (PLoS ONE, 2017).
# Test system: MV-4-11 cells
# Assay: Gene expression microarray analysis (Affymetrix PrimeView) and GSEA
# Assay type: cell-based, human
# Parameters: RFU PODN (11730768_x_at) / Fold change /veh PODN (11730768_x_at) / RFU LINC00158 (11744669_a_at) / Fold change /veh LINC00158 (11744669_a_at) / RFU DUSP10 (11751237_a_at) / Fold change /veh DUSP10 (11751237_a_at) / RFU ID3 (11757404_x_at) / Fold change /veh ID3 (11757404_x_at) / RFU PLEKHG5 (11737974_s_at) / Fold change /veh PLEKHG5 (11737974_s_at) / RFU LRRC4B (11730491_at) / Fold change /veh LRRC4B (11730491_at) / RFU GIMAP4 (11747438_a_at) / Fold change /veh GIMAP4 (11747438_a_at) / RFU KRT8 (11758183_x_at) / Fold change /veh KRT8 (11758183_x_at) / RFU CNN1 (11734310_a_at) / Fold change /veh CNN1 (11734310_a_at) / RFU VPS37D (11726825_at) / Fold change /veh VPS37D (11726825_at) / RFU C10orf10 (11716522_x_at) / Fold change /veh C10orf10 (11716522_x_at) / RFU KIR2DL2 /// KIR2DL4 /// KIR2DL5A /// KIR2DL5B /// KIR2DS1 /// KIR2DS2 /// KIR2DS3 /// KIR2DS4 /// KIR3DL3 /// KIR3DL3 /// KIR3DS1 (11738374_at) / Fold change /veh KIR2DL2 /// KIR2DL4 /// KIR2DL5A /// KIR2DL5B /// KIR2DS1 /// KIR2DS2 /// KIR2DS3 /// KIR2DS4 /// KIR3DL3 /// KIR3DL3 /// KIR3DS1 (11738374_at) / RFU C1QL1 (11718748_at) / Fold change /veh C1QL1 (11718748_at) / RFU TMPRSS4 (11747572_a_at) / Fold change /veh TMPRSS4 (11747572_a_at) / RFU HAMP (11756126_x_at) / Fold change /veh HAMP (11756126_x_at) / RFU RNFT2 (11725882_a_at) / Fold change /veh RNFT2 (11725882_a_at) / RFU NR4A2 (11747474_a_at) / Fold change /veh NR4A2 (11747474_a_at) / RFU ABCC12 (11746883_a_at) / Fold change /veh ABCC12 (11746883_a_at) / RFU TMEM136 (11760407_x_at) / Fold change /veh TMEM136 (11760407_x_at) / RFU CLDN22 /// WWC2 (11732394_at) / Fold change /veh CLDN22 /// WWC2 (11732394_at) / RFU HLA-DPB1 (11760878_x_at) / Fold change /veh HLA-DPB1 (11760878_x_at) / RFU SPINT1 (11716480_a_at) / Fold change /veh SPINT1 (11716480_a_at) / RFU GAP43 (11754022_s_at) / Fold change /veh GAP43 (11754022_s_at) / RFU A4GNT (11735810_at) / Fold change /veh A4GNT (11735810_at) / RFU PRB3 (11715151_x_at) / Fold change /veh PRB3 (11715151_x_at) / RFU TUBB4B (11761932_at) / Fold change /veh TUBB4B (11761932_at) / RFU CAPN14 (11732068_a_at) / Fold change /veh CAPN14 (11732068_a_at) / RFU TMCC2 (11721928_a_at) / Fold change /veh TMCC2 (11721928_a_at) / RFU IRGQ (11745062_a_at) / Fold change /veh IRGQ (11745062_a_at) / RFU FAM174B (11720279_a_at) / Fold change /veh FAM174B (11720279_a_at) / RFU TMPRSS4 (11748680_a_at) / Fold change /veh TMPRSS4 (11748680_a_at) / RFU FAM212B (11763350_a_at) / Fold change /veh FAM212B (11763350_a_at) / RFU PLEKHG5 (11743358_a_at) / Fold change /veh PLEKHG5 (11743358_a_at) / RFU ZSCAN30 (11745921_a_at) / Fold change /veh ZSCAN30 (11745921_a_at) / RFU CMKLR1 (11741424_a_at) / Fold change /veh CMKLR1 (11741424_a_at) / RFU LOC101060620 /// MAPK8IP1 (11723275_at) / Fold change /veh LOC101060620 /// MAPK8IP1 (11723275_at) / RFU SPTSSB (11747773_x_at) / Fold change /veh SPTSSB (11747773_x_at) / RFU PRSS12 (11739890_at) / Fold change /veh PRSS12 (11739890_at) / RFU BIN1 (11741810_x_at) / Fold change /veh BIN1 (11741810_x_at) / RFU WNT11 (11732464_a_at) / Fold change /veh WNT11 (11732464_a_at) / RFU C10orf10 (11716521_a_at) / Fold change /veh C10orf10 (11716521_a_at) / RFU C5orf56 (11738089_at) / Fold change /veh C5orf56 (11738089_at) / RFU CYB561 (11721691_x_at) / Fold change /veh CYB561 (11721691_x_at) / RFU ANKRD19P (11752326_a_at) / Fold change /veh ANKRD19P (11752326_a_at) / RFU OR2T12 /// OR2T33 /// OR2T8 (11738714_s_at) / Fold change /veh OR2T12 /// OR2T33 /// OR2T8 (11738714_s_at) / RFU VCAN (11748164_a_at) / Fold change /veh VCAN (11748164_a_at) / RFU JSRP1 (11732532_at) / Fold change /veh JSRP1 (11732532_at) / RFU KRTAP10-11 (11738290_x_at) / Fold change /veh KRTAP10-11 (11738290_x_at) / RFU MYO3A (11730013_a_at) / Fold change /veh MYO3A (11730013_a_at) / RFU EBF3 (11725865_a_at) / Fold change /veh EBF3 (11725865_a_at) / RFU CAMK2N1 (11719241_x_at) / Fold change /veh CAMK2N1 (11719241_x_at) / RFU C5orf56 (11738088_a_at) / Fold change /veh C5orf56 (11738088_a_at) / RFU OLFML3 (11715873_a_at) / Fold change /veh OLFML3 (11715873_a_at) / RFU LOC100653217 /// NTM (11731650_a_at) / Fold change /veh LOC100653217 /// NTM (11731650_a_at) / RFU MAPK11 (11762145_a_at) / Fold change /veh MAPK11 (11762145_a_at) / RFU FIZ1 (11724087_x_at) / Fold change /veh FIZ1 (11724087_x_at) / RFU OASL (11726364_x_at) / Fold change /veh OASL (11726364_x_at) / RFU SOX15 (11748057_x_at) / Fold change /veh SOX15 (11748057_x_at) / RFU CD79A (11719716_a_at) / Fold change /veh CD79A (11719716_a_at) / RFU HIST1H1D (11736915_at) / Fold change /veh HIST1H1D (11736915_at) / RFU CASKIN2 (11723855_a_at) / Fold change /veh CASKIN2 (11723855_a_at) / RFU LOC730098 (11760151_x_at) / Fold change /veh LOC730098 (11760151_x_at) / RFU OR4N2 (11742367_at) / Fold change /veh OR4N2 (11742367_at) / RFU PRRT2 (11749266_a_at) / Fold change /veh PRRT2 (11749266_a_at) / RFU SNX32 (11753110_a_at) / Fold change /veh SNX32 (11753110_a_at) / RFU CDHR5 (11726645_a_at) / Fold change /veh CDHR5 (11726645_a_at) / RFU RCAN1 (11760418_a_at) / Fold change /veh RCAN1 (11760418_a_at) / RFU FAM167A (11723789_a_at) / Fold change /veh FAM167A (11723789_a_at) / RFU FAM26E (11764081_at) / Fold change /veh FAM26E (11764081_at) / RFU ISYNA1 (11749810_s_at) / Fold change /veh ISYNA1 (11749810_s_at) / RFU ACY1 (11761880_at) / Fold change /veh ACY1 (11761880_at) / RFU 11764098_at / Fold change /veh 11764098_at / RFU SAMD14 (11745864_x_at) / Fold change /veh SAMD14 (11745864_x_at) / RFU NPB (11741838_a_at) / Fold change /veh NPB (11741838_a_at) / RFU TMPRSS6 (11731388_a_at) / Fold change /veh TMPRSS6 (11731388_a_at) / RFU KRTAP10-2 (11738614_at) / Fold change /veh KRTAP10-2 (11738614_at) / RFU ARHGAP8 /// PRR5-ARHGAP8 (11727945_x_at) / Fold change /veh ARHGAP8 /// PRR5-ARHGAP8 (11727945_x_at) / RFU KRTAP5-7 /// NADSYN1 (11734609_at) / Fold change /veh KRTAP5-7 /// NADSYN1 (11734609_at) / RFU RASL12 (11751679_a_at) / Fold change /veh RASL12 (11751679_a_at) / RFU CDKN2B (11736163_a_at) / Fold change /veh CDKN2B (11736163_a_at) / RFU PRF1 (11729649_at) / Fold change /veh PRF1 (11729649_at) / RFU, ZNF638 /// ZNF638-IT1 / Fold change vs veh, ZNF638 /// ZNF638-IT1 / RFU, PANK3 / Fold change vs veh, PANK3 / RFU, SH3YL1 / Fold change vs veh, SH3YL1 / RFU, ZEB2 / Fold change vs veh, ZEB2 / RFU, NRIP1 / Fold change vs veh, NRIP1 / RFU, PTTG1IP / Fold change vs veh, PTTG1IP / RFU, CAPN2 / Fold change vs veh, CAPN2 / RFU, MED14 / Fold change vs veh, MED14 / RFU, SNORA58 / Fold change vs veh, SNORA58 / RFU, C1orf63 / Fold change vs veh, C1orf63 / RFU, LRRFIP1 / Fold change vs veh, LRRFIP1 / RFU, NDUFAF7 / Fold change vs veh, NDUFAF7 / RFU, SLC12A2 / Fold change vs veh, SLC12A2 / RFU, IBTK / Fold change vs veh, IBTK / RFU, ESF1 / Fold change vs veh, ESF1 / Fold change vs veh, TMEM50B / RFU, TAOK1 / Fold change vs veh, TAOK1 / RFU, ACBD3 / Fold change vs veh, ACBD3 / RFU, TMA16 / Fold change vs veh, TMA16 / RFU, RWDD3 / Fold change vs veh, RWDD3 / RFU, BCAT1 / Fold change vs veh, BCAT1 / RFU, EDEM3 / Fold change vs veh, EDEM3 / RFU, TMEM33 / Fold change vs veh, TMEM33 / RFU, WDR75 / Fold change vs veh, WDR75 / RFU, AHCTF1 / Fold change vs veh, AHCTF1 / RFU, TFRC / Fold change vs veh, TFRC / RFU, ZDHHC17 / Fold change vs veh, ZDHHC17 / RFU, NOM1 / Fold change vs veh, NOM1 / RFU, ARL8B / Fold change vs veh, ARL8B / RFU, ZBTB11 / Fold change vs veh, ZBTB11 / RFU, TAMM41 / Fold change vs veh, TAMM41 / RFU, KIAA1704 /// LOC100996395 / Fold change vs veh, KIAA1704 /// LOC100996395 / RFU, ING1 / Fold change vs veh, ING1 / RFU, TRMT61B / Fold change vs veh, TRMT61B / RFU, FUBP3 / Fold change vs veh, FUBP3 / RFU, TP53 / Fold change vs veh, TP53 / RFU, TNKS2 / Fold change vs veh, TNKS2 / RFU, ZFP14 / Fold change vs veh, ZFP14 / RFU, ACTR2 / Fold change vs veh, ACTR2 / RFU, PPP3R1 / Fold change vs veh, PPP3R1 / RFU, PIK3R1 / Fold change vs veh, PIK3R1 / RFU, HNRNPA1 / Fold change vs veh, HNRNPA1 / RFU, RNF170 / Fold change vs veh, RNF170 / RFU, ZNF28 / Fold change vs veh, ZNF28 / RFU, RNGTT / Fold change vs veh, RNGTT / RFU, OGT / Fold change vs veh, OGT / RFU, BRD1 / Fold change vs veh, BRD1 / RFU, MARS / Fold change vs veh, MARS / RFU, ZNF655 / Fold change vs veh, ZNF655 / RFU, FAHD1 / Fold change vs veh, FAHD1 / RFU, BDP1 / Fold change vs veh, BDP1 / RFU, LRRCC1 / Fold change vs veh, LRRCC1 / RFU, ARID1A / Fold change vs veh, ARID1A / RFU, ZNF146 / Fold change vs veh, ZNF146 / RFU, ZNF330 / Fold change vs veh, ZNF330 / RFU, GPN3 / Fold change vs veh, GPN3 / RFU, C9orf123 / Fold change vs veh, C9orf123 / RFU, N4BP2L2 / Fold change vs veh, N4BP2L2 / RFU, ARFIP1 / Fold change vs veh, ARFIP1 / RFU, FAM179B / Fold change vs veh, FAM179B / RFU, BCL10 / Fold change vs veh, BCL10 / RFU, UHRF1BP1L / Fold change vs veh, UHRF1BP1L / RFU, BET1 / Fold change vs veh, BET1 / RFU, CNOT2 / Fold change vs veh, CNOT2 / RFU, ZNF268 / Fold change vs veh, ZNF268 / Fold change vs veh, ZNF507 / RFU, DGCR2 / Fold change vs veh, DGCR2 / RFU, WDSUB1 / Fold change vs veh, WDSUB1 / Fold change vs veh, HSP90B1 /// MIR3652 / RFU, ADSS / Fold change vs veh, ADSS / RFU, GK / Fold change vs veh, GK / RFU, ZNF148 / Fold change vs veh, ZNF148 / RFU, TAF9 / Fold change vs veh, TAF9 / RFU, SLC1A5 / Fold change vs veh, SLC1A5 / RFU, SLMO2 / Fold change vs veh, SLMO2 / RFU, ABCC4 / Fold change vs veh, ABCC4 / RFU, LOC101060439 /// RAP1B / Fold change vs veh, LOC101060439 /// RAP1B / RFU, RFX7 / Fold change vs veh, RFX7 / RFU, GTPBP10 / Fold change vs veh, GTPBP10 / RFU, CNEP1R1 / Fold change vs veh, CNEP1R1 / RFU, BIVM-ERCC5 /// ERCC5 / Fold change vs veh, BIVM-ERCC5 /// ERCC5 / RFU, ILF3 / Fold change vs veh, ILF3 / RFU 11762660_at / Fold change /veh 11762660_at / RFU VCAN (11757783_s_at) / Fold change /veh VCAN (11757783_s_at) / RFU DDX43 (11728927_at) / Fold change /veh DDX43 (11728927_at) / RFU KRT8 (11758188_x_at) / Fold change /veh KRT8 (11758188_x_at) / RFU NKD1 (11759106_at) / Fold change /veh NKD1 (11759106_at) / RFU SRD5A1 (11742802_a_at) / Fold change /veh SRD5A1 (11742802_a_at) / RFU TPSAB1 /// TPSB2 (11721975_s_at) / Fold change /veh TPSAB1 /// TPSB2 (11721975_s_at) / RFU GSTM3 (11746129_a_at) / Fold change /veh GSTM3 (11746129_a_at) / RFU IL23R (11737362_x_at) / Fold change /veh IL23R (11737362_x_at) / RFU TMEM51 (11727254_a_at) / Fold change /veh TMEM51 (11727254_a_at) / RFU PIWIL2 (11732686_x_at) / Fold change /veh PIWIL2 (11732686_x_at) / RFU ORM1 (11744905_x_at) / Fold change /veh ORM1 (11744905_x_at) / RFU CCDC152 (11743942_at) / Fold change /veh CCDC152 (11743942_at) / RFU ECM1 (11717891_a_at) / Fold change /veh ECM1 (11717891_a_at) / RFU IL23R (11748794_a_at) / Fold change /veh IL23R (11748794_a_at) / RFU TNFAIP8L3 (11732012_x_at) / Fold change /veh TNFAIP8L3 (11732012_x_at) / RFU MBOAT4 (11741988_at) / Fold change /veh MBOAT4 (11741988_at) / RFU 11764193_at / Fold change /veh 11764193_at / RFU TMEM53 (11763286_at) / Fold change /veh TMEM53 (11763286_at) / RFU MAGEB2 (11727129_at) / Fold change /veh MAGEB2 (11727129_at) / RFU TMEM200A (11744735_a_at) / Fold change /veh TMEM200A (11744735_a_at) / RFU CCDC152 (11751479_a_at) / Fold change /veh CCDC152 (11751479_a_at) / RFU FAM211A (11726209_a_at) / Fold change /veh FAM211A (11726209_a_at) / RFU RGS16 (11746705_a_at) / Fold change /veh RGS16 (11746705_a_at) / RFU VCAN (11755009_s_at) / Fold change /veh VCAN (11755009_s_at) / RFU RHOB (11743442_s_at) / Fold change /veh RHOB (11743442_s_at) / RFU RGS16 (11720943_a_at) / Fold change /veh RGS16 (11720943_a_at) / RFU RGS16 (11720944_at) / Fold change /veh RGS16 (11720944_at) / RFU, VPS4B / Fold change vs veh, VPS4B / RFU, CREB1 / Fold change vs veh, CREB1 / RFU, DNAJC13 / Fold change vs veh, DNAJC13 / RFU, GNAQ / Fold change vs veh, GNAQ / RFU, CDK5R1 / Fold change vs veh, CDK5R1 / RFU, ZRANB3 / Fold change vs veh, ZRANB3 / RFU, CUL4A / Fold change vs veh, CUL4A / RFU, CCNY / Fold change vs veh, CCNY / RFU, UFL1 / Fold change vs veh, UFL1 / RFU, COG3 / Fold change vs veh, COG3 / RFU, DIAPH2 / Fold change vs veh, DIAPH2 / RFU, SKA2 / Fold change vs veh, SKA2 / RFU, AFF3 / Fold change vs veh, AFF3 / RFU, LMF1 / Fold change vs veh, LMF1 / RFU, IPO11 / Fold change vs veh, IPO11 / RFU, DFFB / Fold change vs veh, DFFB / RFU, FOXP1 / Fold change vs veh, FOXP1 / RFU, CARD8 / Fold change vs veh, CARD8 / RFU, STRN3 / Fold change vs veh, STRN3 / RFU, ADK / Fold change vs veh, ADK / RFU, RASSF2 / Fold change vs veh, RASSF2 / RFU, WIPF1 / Fold change vs veh, WIPF1 / RFU, LARP1B / Fold change vs veh, LARP1B / RFU, RASA1 / Fold change vs veh, RASA1 / RFU, RB1 / Fold change vs veh, RB1 / RFU, PPFIA1 / Fold change vs veh, PPFIA1 / RFU, MAT2A / Fold change vs veh, MAT2A / RFU, CCT5 / Fold change vs veh, CCT5 / RFU, WDR92 / Fold change vs veh, WDR92 / RFU, CUX1 / Fold change vs veh, CUX1 / RFU, TTC7A / Fold change vs veh, TTC7A / RFU, TMEM135 / Fold change vs veh, TMEM135 / RFU, DEPTOR / Fold change vs veh, DEPTOR / RFU, CPM / Fold change vs veh, CPM / RFU, DNAJB6 / Fold change vs veh, DNAJB6 / RFU, CACNA2D3 / Fold change vs veh, CACNA2D3 / RFU, DTX4 / Fold change vs veh, DTX4 / RFU, TFCP2 / Fold change vs veh, TFCP2 / RFU, GMCL1 /// GMCL1P1 / Fold change vs veh, GMCL1 /// GMCL1P1 / RFU, AEBP2 / Fold change vs veh, AEBP2 / RFU, SNHG1 /// SNORD22 /// SNORD25 /// SNORD26 /// SNORD27 /// SNORD28 /// SNORD29 /// SNORD31 / Fold change vs veh, SNHG1 /// SNORD22 /// SNORD25 /// SNORD26 /// SNORD27 /// SNORD28 /// SNORD29 /// SNORD31 / Fold change (Aza/veh), C12orf56 (ProbeSet 11735607_a_at) / Fold change (ACY-1035/veh), C12orf56 (ProbeSet 11735607_a_at) / Fold change (Aza/veh), FGFR1OP (ProbeSet 11751329_s_at) / Fold change (ACY-1035/veh), FGFR1OP (ProbeSet 11751329_s_at) / Fold change (Aza/veh), VPS36 (ProbeSet 11739960_a_at) / Fold change (ACY-1035/veh), VPS36 (ProbeSet 11739960_a_at) / RFU SYPL1 (11715823_x_at) / Fold change /veh SYPL1 (11715823_x_at) / RFU IGFBP7 (11715501_s_at) / Fold change /veh IGFBP7 (11715501_s_at) / RFU REEP3 (11722064_at) / Fold change /veh REEP3 (11722064_at) / RFU IGLL1 (11728026_x_at) / Fold change /veh IGLL1 (11728026_x_at): dose or concentration left out as unconfirmed
# Details: ProbeSet 11739696_s_at; LIST D
smiles,measurement,value
Nc1ncn([C@@H]2O[C@H](CO)[C@@H](O)[C@H]2O)c(=O)n1 [azacitidine],"Fold change vs veh, AFF3",0.52
